{"source": "patent US10350271B2", "about": "“Lipidated peptides for lowering blood glucose” (USTAV ORGANICKE CHEMIE A BIOCHEMIE AKADEMIE VED CR, V.V.I., priority 2014, dated 2019)", "type_in_all_cases": "in vivo", "key": {"C57BL/6 mice [1]": {"system": "C57BL/6 mice", "assay": "IPGTT after acute administration in lean mice", "details": "lean C57BL/6 mice, 5 mg/kg SC, vs saline", "procedure": "IPGTT was performed in overnight fasted male C57BL/6 mice.\nIntraperitoneal glucose tolerance test (IPGTT) was performed in overnight fasted male C57BL/6 mice (AnLab, Praha, Czech Republic) at age of 12 weeks. […] 15 min later, 2 g/kg glucose solution was administered IP. Blood glucose was then measured at 15, 30, 60, 120 min from glucose injection using a glucometer (Glucocard, Arkray, Kyoto, Japan).\nIPGTT was performed in overnight fasted male C57BL/6 mice, Blood glucose levels were measured at the beginning and after subcutaneous (SC—beneath the skin) administration of palm-PrRP31 (5 mg/kg SC) or saline (n=7) at time 30, 60, 90 and 120 min post injection. […] Regarding the error bars in the graphs *P<0.05, **P<0.01. IPGTT glucose levels were lower in mice given analog 43 instead of saline, particularly early in the experiment. Total area under the curve was also clearly lower in analog 43 mice."}, "Wistar rats": {"system": "Wistar rats", "assay": "IPGTT after acute administration in lean rats", "details": "fasted male Wistar rats, 5 mg/kg, vs saline", "procedure": "IPGTT was performed in overnight fasted male Wistar rats.\nIPGTT was performed in overnight fasted male Wistar rats (Antab, Praha, Czech Republic) at age of 14 weeks. […] 15 min later, 2 g/kg glucose solution was administered IP. Blood glucose was then measured at 15, 30, 60, and 120 min from glucose injection.\nFIG. 4 illustrates a plot of glucose levels after acute administration of palm-PrRP31 in rats. IPGTT was performed in overnight fasted male Wistar rats."}, "ZDF diabetic rats": {"system": "ZDF diabetic rats", "assay": "21 days repeated administration in diabetic ZDF rats (food intake, OGTT, metabolic parameters)", "procedure": "(§1) Rats were subjected to a 21-day food intake experiment. ZDF rats were IP injected with either phosphate-buffered saline pH6 (control) or compound 43 or 52 at a dose of 1 and 5 mg/kg (n=8), twice a day for 21 days. After 21 days of treatment, rats were fasted overnight and OGTT was performed. After initial blood glucose measurement, 2 g/kg glucose solution was administered by oral gavage. Blood glucose was then measured at 15, 30, 60, 90, 120 and 180 min.\nNMRI mice, C57BL/6 mice, and Wistar rats (AnLab, Prague, Czech Republic) were housed in a temperature of 23° C. and a daily cycle of 12 h light and dark (light from 6:00). They were given ad libitum water and a standard chow diet that contained 25, 9 and 66% of calories of protein, fat and carbohydrate respectively. Energy content of the feed was 3.4 kcal/g (St-1, Mlýn Kocanda, Czech Republic). Db/db mice and their controls (C57BL/6 background) were obtained from Taconic (Denmark), housed under the same conditions as described above, and fed by Altromin (Taconic, Denmark). ZDF-Lepr^fa/Crl, diabetic fa/fa male rats were obtained from Charles River (France), housed under same conditions as described above, and fed with a Purina 5008 diet (IPS Product Supplies Limited, UK). All experiments followed the ethical guidelines for animal experiments and the law of the Czech Republic Nr. 246/1992.\nThe ZDF rats were treated with vehicle or analogs 43 and 52 (1 and 5 mg/kg IP) dissolved in phosphate buffered saline, pH 6, twice daily for 21 days and sacrificed on day 22. Food intake was measured daily up to day 22. Leptin, insulin, cholesterol and HbA1c levels were measured on day 21. Glucose tolerance test (OGTT) was also performed on day 21.\nas §1, with “min. […] The statistical significance, denoted by the asterisk (*), was *P<0.05.” for “min.”"}, "C57BL/6 mice [2]": {"system": "C57BL/6 mice", "assay": "Food intake in fasted mice after SC injection", "details": "5 mg/kg SC, 45 min after injection", "outline": "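Saline, PrRP or a lipidated analog was injected SC (1-10 mg/kg) after a 17 h fast with free water, animals housed singly.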"}, "[3]": {"details": "ZDF rats, 1 mg/kg IP twice daily"}, "[4]": {"details": "ZDF rats, 5 mg/kg IP twice daily"}, "[5]": {"details": "ZDF rats, day 21, 1 mg/kg IP twice daily"}, "[6]": {"details": "ZDF rats, day 21, 5 mg/kg IP twice daily"}}, "note": "Marks after values point to notes of the source that are not given here."}
{"molecule": "CCCCCCCCCCCCCCCC(=O)N[C@@H](CO)C(=O)N[C@@H](CCCNC(=N)N)C(=O)N[C@H](C(=O)N[C@@H](Cc1c[nH]cn1)C(=O)N[C@@H](CCCNC(=N)N)C(=O)N[C@@H](Cc1c[nH]cn1)C(=O)N[C@@H](CO)C(=O)N[C@@H](CCSC)C(=O)N[C@@H](CCC(=O)O)C(=O)N[C@H](C(=O)N[C@@H](CCCNC(=N)N)C(=O)N[C@H](C(=O)N1CCC[C@H]1C(=O)N[C@@H](CC(=O)O)C(=O)N[C@H](C(=O)N[C@@H](CC(N)=O)C(=O)N1CCC[C@H]1C(=O)N[C@@H](C)C(=O)N[C@@H](Cc1c[nH]c2ccccc12)C(=O)N[C@@H](Cc1ccc(O)cc1)C(=O)N[C@@H](C)C(=O)N[C@@H](CO)C(=O)N[C@@H](CCCNC(=N)N)C(=O)NCC(=O)N[C@H](C(=O)N[C@@H](CCCNC(=N)N)C(=O)N1CCC[C@H]1C(=O)N[C@H](C(=O)NCC(=O)N[C@@H](CCCNC(=N)N)C(=O)N[C@@H](Cc1ccccc1)C(N)=O)C(C)C)[C@@H](C)CC)[C@@H](C)CC)[C@@H](C)O)[C@@H](C)CC)[C@@H](C)O", "note": "[Analog 43]", "values": [{"measurement": "IPGTT glucose levels", "setting": "C57BL/6 mice [1]", "value": "lower"}, {"measurement": "IPGTT total area under the curve", "setting": "C57BL/6 mice [1]", "value": "clearly lower"}, {"measurement": "Large spike in blood glucose in IPGTT", "setting": "Wistar rats", "value": "did not"}, {"measurement": "Food intake in free fed ZDF diabetic rats", "setting": "ZDF diabetic rats; 5 mg/kg IP twice daily, vs vehicle", "value": "significantly lowered"}, {"measurement": "Cumulative food intake Day 1", "setting": "ZDF diabetic rats; [3]", "value": "40.8 ± 2.1", "unit": "g"}, {"measurement": "Cumulative food intake Day 1-7", "setting": "ZDF diabetic rats; [3]", "value": "299.9 ± 8.9", "unit": "g"}, {"measurement": "Cumulative food intake Day 1-14", "setting": "ZDF diabetic rats; [3]", "value": "572.5 ± 15.5", "unit": "g"}, {"measurement": "Cumulative food intake Day 1-21", "setting": "ZDF diabetic rats; [3]", "value": "817.7 ± 22.1", "unit": "g"}, {"measurement": "Cumulative food intake Day 1", "setting": "ZDF diabetic rats; [4]", "value": 34.2, "unit": "g"}, {"measurement": "Cumulative food intake Day 1-7", "setting": "ZDF diabetic rats; [4]", "value": "273.3 ± 20.4** g"}, {"measurement": "Cumulative food intake Day 1-14", "setting": "ZDF diabetic rats; [4]", "value": "528.9 ± 36.0** g"}, {"measurement": "Cumulative food intake Day 1-21", "setting": "ZDF diabetic rats; [4]", "value": 768.2, "unit": "g"}, {"measurement": "OGTT blood glucose levels", "setting": "ZDF diabetic rats; ZDF rats, 5 mg/kg twice daily for 21 days", "value": "significant lowering"}, {"measurement": "Blood cholesterol levels", "setting": "ZDF diabetic rats; ZDF rats, 1 and 5 mg/kg twice daily, vs controls", "value": "significantly lowered"}, {"measurement": "Cholesterol", "setting": "ZDF diabetic rats; [5]", "value": "3.10 ± 0.12* mmol/l"}, {"measurement": "Insulin", "setting": "ZDF diabetic rats; [5]", "value": "267.69 ± 40.69", "unit": "pmol/L"}, {"measurement": "Leptin", "setting": "ZDF diabetic rats; [5]", "value": "13297 ± 921", "unit": "pg/mL"}, {"measurement": "Cholesterol", "setting": "ZDF diabetic rats; [6]", "value": "2.91 ± 0.12** mmol/l"}, {"measurement": "Insulin", "setting": "ZDF diabetic rats; [6]", "value": "271.84 ± 34.00", "unit": "pmol/L"}, {"measurement": "Leptin", "setting": "ZDF diabetic rats; [6]", "value": "16560 ± 4843", "unit": "pg/mL"}, {"measurement": "Food intake in mice % of saline-treated group", "setting": "C57BL/6 mice [2]", "value": 30, "unit": "%"}]}
